The target of one experiment is T1, PCSK9-D374Y (Homo sapiens, UniProt Q8NBP7, D374Y).
T1 construct: host or cells: HepG2 cells (the protein is added from outside; LDLR is endogenous)
The experiment is described as follows: LDL uptake in HepG2 cells treated with PCSK9-D374Y (cell-based assay). To be noted: HepG2 cells with PCSK9-D374Y (2 μg/ml), 16 hours, Bodipy FL LDL 4 hours, FIG. 3. As to the method: Human liver cells (hepG2) express the LDL receptor, which can take up fluorescent-labeled LDL into the cell. PCSK9 binds to LDL receptor, wherein the complex is internalized and degraded in the lysosome, resulting in lowered LDL uptake in hepG2 cells. Inhibition of PCSK9 […] lowers plasma (circulating) LDL-C by increasing LDL incorporation into the cell.
The cell-based assay was conducted as follows, according to the procedure outlined in Xu and Liu, J Bioequiv Availab 2013, 5, 7. […] Human liver HepG2 cells were seeded in a 96 well plate at 2×10^5 cells/ml and incubated overnight. PCSK9-D374Y (2 μg/ml) was added, along with test compounds. The wells were incubated for 16 hours, whereupon the medium was replaced with fresh medium containing 10 μg/ml Bodipy FL LDL, and the wells were incubated for a further 4 hours. The wells were washed using warm PBS and then the LDL uptake was quantified on a fluorescent plate reader at excitation/emission wavelengths of 485 and 530 nm respectively.
FIG. 2 indicates the decrease in LDL update in HepG2 cells comparing untreated and PCSK9-D374Y gain-of-function treated cells. Test compounds were measured at their ability to increase LDL uptake at concentrations of 0.1 and 1 μM and the results shown in FIG. 3.

Experiment [1] addresses T2, PCSK9 and the LDL receptor (Homo sapiens, UniProt Q8NBP7).
T2 construct: purchased CircuLex CY-8150
The experiment is described as follows: CircuLex PCSK9-LDLR in vitro binding assay. The note with it: His-tagged PCSK9 wild type, 8 point concentration curves, absorbance 450 nm and 540 nm; for IC50: read-out: Inhibition of PCSK9-LDLR binding. As to the method:
Compounds were assayed for their ability to inhibit the binding between PCSK9 and the LDL receptor using a CircuLex PCSK9-LDLR in vitro binding assay kit (Catalog #CY-8150. The procedure employed the reagents and buffers included in the kit as follows.
88 μL of 1× reaction buffer were placed into each well. 5 μL of test compounds in 20% DMSO were added into each well. 10 mM solutions of test compounds in DMSO were diluted by 3-fold series to give 8 point concentration curves. The compounds were then diluted 20-fold with the reaction buffer. To each well was then added 7 μL of His-tagged PCSK9 wild type solution (1000 ng/mL) into each well. The plate was then covered with a plate sealer and incubated at room temperature for 3 hours, shaking at 300 rpm on an orbital microplate shaker. The test solutions were washed 4 times with 350 μL wash buffer. 100 μL of biotinylated anti-His-tag monoclonal antibody was added to each well. The plate was covered with a plate sealer, and incubated at room temperature for 1 hour, shaking at 300 rpm. The test solutions were washed 4 times with 350 μL wash buffer. 100 μL of HRP-conjugated streptavidin was added to each well. The plate was covered with a plate sealer, and incubated at room temperature for 20 min, shaking at 300 rpm.
The test solutions were washed 4 times with 350 μL wash buffer. 100 μL of substrate reagent were added into each well. The plate was covered with a plate sealer, and incubated at room temperature for 15 min, shaking at 300 rpm. Finally, 100 μL of the stop solution was added to each well in the same order as the previously added substrate reagent. Absorbance was measured at 450 nm and 540 nm and IC50 curves were plotted.

T1 sequence (Q8NBP7 153-692 D374Y): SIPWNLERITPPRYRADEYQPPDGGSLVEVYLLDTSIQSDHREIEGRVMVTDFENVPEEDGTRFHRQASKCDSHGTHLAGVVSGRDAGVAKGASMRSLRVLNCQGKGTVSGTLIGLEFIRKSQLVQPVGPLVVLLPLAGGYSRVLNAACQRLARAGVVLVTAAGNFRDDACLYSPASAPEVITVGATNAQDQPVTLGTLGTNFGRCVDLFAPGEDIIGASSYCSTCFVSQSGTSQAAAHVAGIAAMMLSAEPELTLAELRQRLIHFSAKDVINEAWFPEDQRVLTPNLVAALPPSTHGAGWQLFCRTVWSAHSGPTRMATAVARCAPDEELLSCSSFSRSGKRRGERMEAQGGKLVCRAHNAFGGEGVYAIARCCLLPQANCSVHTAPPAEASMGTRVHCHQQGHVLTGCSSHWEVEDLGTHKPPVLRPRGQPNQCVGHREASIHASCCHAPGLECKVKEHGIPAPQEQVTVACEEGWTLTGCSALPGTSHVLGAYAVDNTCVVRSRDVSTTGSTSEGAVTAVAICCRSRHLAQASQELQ
T1 sequence (Q8NBP7 31-152 partner limits assumed): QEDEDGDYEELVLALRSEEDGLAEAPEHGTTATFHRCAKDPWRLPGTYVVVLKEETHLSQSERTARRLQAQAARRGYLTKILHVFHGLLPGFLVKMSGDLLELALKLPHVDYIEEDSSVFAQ
T2 sequence (Q8NBP7 153-692): as the sequence (Q8NBP7 153-692 D374Y) above, with Y222D counted along it
T2 sequence (Q8NBP7 31-152 partner limits assumed): as the sequence (Q8NBP7 31-152 partner limits assumed) above

For `Cc1cn(-c2cc(NC(=O)c3ccc(C)c(Oc4cccc5ccncc45)c3)cc(N3CCN(C)CC3)c2)cn1` [Example 27, 3-(isoquinolin-8-yloxy)-4-methyl-N-(3-(4-methyl-1H-imidazol-1-yl)-5-(4-methylpiperazin-1-yl)phenyl)benzamide], the “increase of LDL uptake” value at PCSK9-D374Y (0.1 μM compound) and on PCSK9-D374Y (1 μM compound) was “Significant increases in LDL uptake equivalent to untreated cells” in each case. In experiment [1], the IC50 is below 0.1 µM.
On to `Cc1cn(-c2cc(CN3CCC[C@H](N)C3)cc(NC(=O)c3ccc(C)c(Oc4ccccc4)c3)c2)cn1` [Example 30, (S)—N-(3-((3-aminopiperidin-1-yl)methyl)-5-(4-methyl-1H-imidazol-1-yl)phenyl)-4-methyl-3-phenoxybenzamide], for which the “increase of LDL uptake” value on PCSK9-D374Y (0.1 μM compound) and on PCSK9-D374Y (1 μM compound) was “Significant increases in LDL uptake equivalent to untreated cells” in each case. The IC50 in experiment [1] fell in the range of 0.1 to 1 µM.
Regarding `Cc1cn(-c2cc(NC(=O)c3ccc(C)c(Oc4ccccc4)c3)cc(N3CCN(C)CC3)c2)cn1` [Example 25, 4-methyl-N-(3-(4-methyl-1H-imidazol-1-yl)-5-(4-methylpiperazin-1-yl)phenyl)-3-phenoxybenzamide], in experiment [1] (IC50 curves), the “Inhibition of PCSK9-LDLR binding” value is on record as “* (Starred values refer to levels of inhibition of binding by less than 35% at the highest concentration tested, due either to solubility limitations or dynamic range limitations of the assay.)”.
Consider `Cc1cn(-c2cc(CCS(N)(=O)=O)cc(NC(=O)c3ccc(C)c(Nc4nccc(-c5ccccc5)n4)c3)c2)cn1` [Example 10, 4-methyl-N-(3-(4-methyl-1H-imidazol-1-yl)-5-(2-sulfamoylethyl)phenyl)-3-((4-phenylpyrimidin-2-yl)amino)benzamide], for which the IC50 in experiment [1] is 10 to 100 µM.
On to `Cc1ccc(C(=O)Nc2cccc(C(F)(F)F)c2)cc1Nc1nccc(-c2cccnc2)n1` [Example 17, 4-methyl-3-((4-(pyridin-3-yl)pyrimidin-2-yl)amino)-N-(3-(trifluoromethyl)phenyl)benzamide], for which the IC50 in experiment [1] is above 100 µM.
Still for that read-out and setting: the value for `Cc1cn(-c2cc(CN3CCCC[C@H]3C(N)=O)cc(NC(=O)c3ccc(C)c(Nc4nccc(-c5ccc(F)cc5)n4)c3)c2)cn1` [Example 21, (S)-1-(3-(3-((4-(4-fluorophenyl)pyrimidin-2-yl)amino)-4-methylbenzamido)-5-(4-methyl-1H-imidazol-1-yl)benzyl)piperidine-2-carboxamide] was 1 to 10 µM.

These data come from patent US11897868B2, “Heterocyclic inhibitors of PCSK9” (CARDIO THERAPEUTICS PTY LTD, priority 2017, dated 2024).
